Data on three compounds can be found in article PMC11085086, “Microwave-Assisted Atom Transfer Radical Cyclization in the Synthesis of 3,3-Dichloro-γ- and δ-Lactams from N-Alkenyl-Tethered Trichloroacetamides Catalyzed by RuCl2(PPh3)3 and Their Cytotoxic Evaluation” (Molecules, 2024).

Data set [1] is described as follows: Cell viability assay, MTT endpoint, A431. The conditions noted are these: human, A431 squamous cell carcinoma cells, A431, highest assayed concentration 250 µg/mL, 24 h. The format is cell-based. Here is the method: (§1) The murine Swiss albino fibroblasts (3T3), the human breast adenocarcinoma (MCF-7), the human epithelial carcinoma (HeLa) and the squamous cell carcinoma (A431) cell lines were obtained from Celltec UB. Cells were grown in DMEM medium (4.5 g/L glucose) supplemented with 10% (v/v) FBS, 2 mM L-glutamine, 100 U/mL penicillin and 100 µg/mL streptomycin at 37 °C, 5% CO2. Cells were routinely cultured in 75 cm^2 culture flasks and were trypsinized using trypsin–EDTA when the cells reached approximately 80% confluence. The trypan blue assay, which allows for a direct identification and enumeration of the live (unstained) and dead (blue) cells in the cell population, was used to evaluate the viability of the cells in the cell suspension obtained.
(§2) 3T3 (1 × 10^5 cells/mL), A431, HeLa and MCF-7 cells (5 × 10^4 cells/mL) were grown at defined densities in the 60 central wells of a 96-well plate. Cells were incubated for 24 h in 5% CO2 at 37 °C. Then, the spent medium was removed, and cells were incubated for 24 h with their corresponding compound solutions (1 mg/mL) previously diluted in a minimum amount of DMF (dimethylformamide) and then in DMEM medium supplemented with 5% FBS (100 µL) at the required concentration range (10–250 µg/mL). The viability of the cells upon incubation with the lactam derivatives was assayed using 2 different endpoints: NRU and MTT.
(§3) Only living cells can reduce the yellow tetrazolium salt 3-(4,5-dimethyl-2-thiazolyl)-2,5-diphenyltetrazolium bromide (MTT) to insoluble purple formazan crystals. After a 24 h incubation of the cells with their corresponding NPs, the medium was removed and 100 µL of MTT (Sigma-Aldrich, St. Louis, USA) in PBS (5 mg/mL) diluted 1:10 in culture medium without phenol red and without FBS (Lonza, Verviers, Belgium) was added to the cells. After 3 h of incubation, the medium was removed. Thereafter, 100 µL of DMSO (Sigma-Aldrich, St. Louis, MO, USA) was added to each well to dissolve the purple formazan crystals. Agitation and determination of the absorbance of the extracted solution were performed under the same conditions as described in NRU Assay section. Finally, the effect of each treatment was calculated as the percentage of tetrazolium salt’s reduction by viable cells relative to control cells (cells without any treatment).
(§4) The corresponding half-maximal inhibitory concentration (IC50) values for the different formulations as a function of the cell line and endpoint were determined from the fitting of concentration-dependent viability curves. The corresponding selectivity indexes toward tumoral cells were calculated using the following ratio: SI = IC50 (non-tumoral cell line)/IC50 (tumoral cell line) where 3T3 fibroblasts were used as close representative cells under non-tumoral conditions. Moreover, pseudo selectivity indexes toward tumoral cells were calculated considering the discrete cellular responses at the maximum tested concentration (250 µg/mL).

The subject of data set [2] is squamous cell carcinoma (A431) cell line. The data set is described as follows: Cell viability assay, MTT endpoint, A431. The class given is cell-based. Here is the method: as §1, §2, §3, §4
Data set [3] in a line: Hemolysis assay with human erythrocyte suspension. The format is cell-based. The conditions noted are these: human, washed human erythrocyte suspension, PBS pH 7.4, read-out: degree of hemolysis. Here is the method: Human blood samples were obtained from the Banc de Sang i Teixits de Barcelona (Spain) from the Catalan Department of Health. Blood was deposited in tubes with the anticoagulant EDTA-K3. Blood samples were centrifuged at 3000 rpm and 4 °C for 10 min (Megafuge 2.0 R. Heraeus Instruments, Hanau, Germany) to induce sedimentation. Plasma was extracted with a Pasteur pipette. Next, the residual pellet was washed with PBS at pH 7.4. This procedure was repeated three times to remove residual leukocytes and platelets and to concentrate the erythrocytes. Following the last wash, the erythrocyte suspension was diluted (1:1) in PBS at pH 7.4 to obtain a suitable erythrocyte suspension (cell density of 8 × 10^9 cell/mL).
The hemolysis assay determined the capability of different compounds to induce the hemolysis of the erythrocyte membrane. Stock solutions of each compound at 1 mg/mL in PBS at pH 7.4 were prepared. Different volumes (10–80 μL) were placed in polystyrene tubes, and an aliquot of 25 µL of the erythrocyte suspensions was added to each tube. The final volume was 1 mL. The tubes were incubated at room temperature under rotatory conditions. Then, the tubes were centrifuged at 10,000 rpm for 5 min. The supernatants’ absorbance at 540 nm (Shimadzu UV-160A, Shimadzu, Duisburg, Germany) was compared with that of the positive (erythrocytes hemolyzed with distilled water) and negative (erythrocyte suspension in PBS at pH 7.4.) controls.
The degree of hemolysis was determined using the following equation:Hemolysis (%) = 100 × (Abs − Abs0)/(Abs100 − Abs0) where Abs, Abs0 and Abs100 are the absorbance of the test samples, of the suspension treated with isotonic phosphate–buffered saline (PBS) and of the suspension of complete hemolysis treated with distilled water, respectively.

For data set [4], the system named is murine Swiss albino fibroblasts (3T3). The data set can be described thus: Cell viability assay, NRU endpoint, 3T3. The format is cell-based. The conditions noted are these: Mus musculus, Fibroblast, 3T3, 24 h incubation, 10–250 µg/mL. Here is the method: as §1, §2
(§5) The neutral red uptake (NRU) assay is based on the accumulation of dye in the lysosomes of viable cells. After the cells were incubated for 24 h with the corresponding systems, the medium was removed, and the solutions were incubated with the NR dye (Sigma-Aldrich, St. Louis, MO, USA) solution (50 µg/mL) dissolved in the medium, without FBS and without phenol red (Lonza, Verviers, Belgium), for 3 h. Cells were then washed with sterile PBS, followed by the addition of 100 µL of a solution containing 50% absolute ethanol and 1% acetic acid in distilled water to extract the dye. To promote the total dissolution of the dye, plates were placed in a microtiter-plate shaker for 5 min at room temperature. The absorbance of the resulting solutions was measured at 550 nm (Bio-Rad 550 microplate reader, Bio-Rad California, Hercules, CA, USA). Finally, the effect of each treatment was calculated as the percentage of dye uptake by viable cells relative to the control cells (cells without any treatment).
as §4

In data set [5] the test system is 3T3, A431, HeLa and MCF-7 cell lines. The data set is described as follows: Cell viability assays (MTT and NRU), endpoint and cell line not specified. The conditions noted are these: range over cell lines; read-out: lowest IC50 values as a function of cell line. The class given is cell-based. Here is the method:
The murine Swiss albino fibroblasts (3T3), the human breast adenocarcinoma (MCF-7), the human epithelial carcinoma (HeLa) and the squamous cell carcinoma (A431) cell lines were obtained from Celltec UB. Cells were grown in DMEM medium (4.5 g/L glucose) supplemented with 10% (v/v) FBS, 2 mM L-glutamine, 100 U/mL penicillin and 100 µg/mL streptomycin at 37 °C, 5% CO2. Cells were routinely cultured in 75 cm^2 culture flasks and were trypsinized using trypsin–EDTA when the cells reached approximately 80% confluence. […]
The neutral red uptake (NRU) assay is based on the accumulation of dye in the lysosomes of viable cells. […] The absorbance of the resulting solutions was measured at 550 nm (Bio-Rad 550 microplate reader, Bio-Rad California, Hercules, CA, USA). Finally, the effect of each treatment was calculated as the percentage of dye uptake by viable cells relative to the control cells (cells without any treatment).
Only living cells can reduce the yellow tetrazolium salt 3-(4,5-dimethyl-2-thiazolyl)-2,5-diphenyltetrazolium bromide (MTT) to insoluble purple formazan crystals. […] Agitation and determination of the absorbance of the extracted solution were performed under the same conditions as described in NRU Assay section. Finally, the effect of each treatment was calculated as the percentage of tetrazolium salt’s reduction by viable cells relative to control cells (cells without any treatment). […]

In data set [6] the test system is human epithelial carcinoma (HeLa) cell line. The data set is described as follows: Cell viability assay, NRU endpoint, HeLa. The conditions noted are these: 24 h incubation, 10–250 µg/mL. The format is cell-based. Here is the method:
as §1, §2, §5, §4

Data set [7] is described as follows: Cell viability assay, MTT endpoint, 3T3. The format is cell-based, murine. The conditions noted are these: mouse, 3T3 fibroblasts, 3T3, 250 µg/mL, 24 h. Here is the method:
as §1, §2, §3, §4

Data set [8] has as its system murine Swiss albino fibroblasts (3T3). The data set can be described thus: Cell viability assay, MTT endpoint, 3T3. The conditions noted are these: Mus musculus, Fibroblast, 3T3, 24 h incubation, 10–250 µg/mL. The format is cell-based. Here is the method: as §1, §2, §3, §4
The test system of data set [9] is squamous cell carcinoma (A431) cell line. The data set can be described thus: Cell viability assay, NRU endpoint, A431. The class given is cell-based. The conditions noted are these: A431 compared to 3T3, 250 µg/mL, 24 h. Here is the method: as §1, §2, §5, §4
Data set [10] has as its system human breast adenocarcinoma (MCF-7) cell line. The data set is described as follows: Cell viability assay, NRU endpoint, MCF-7. The format is cell-based. The conditions noted are these: Homo sapiens, MCF7, 24 h incubation, 10–250 µg/mL. On the procedure: as §1, §2, §5, §4
Data set [11] can be described thus: Cell viability assay, NRU endpoint, cell line not specified. The conditions noted are these: up to 250 µg/mL, read-out: minimum cell viability values. The class given is cell-based. Here is the method:
as §1, §2, §5

The subject of data set [12] is human breast adenocarcinoma (MCF-7) cell line. The data set is described as follows: Cell viability assay, MTT endpoint, MCF-7. The format is cell-based. The conditions noted are these: MTT. Here is the method:
as §1, §2, §3, §4

Data set [13] in a line: Cell viability assay, MTT endpoint, HeLa. The format is cell-based, human. The conditions noted are these: human, HeLa cells, HeLa, 250 µg/mL, 24 h. Here is the method: as §1, §2, §3, §4
Data set [14] concerns human epithelial carcinoma (HeLa) cell line. The data set can be described thus: Cell viability assay, MTT endpoint, HeLa. The class given is cell-based. On the procedure: as §1, §2, §3, §4

Values after ≈ are worked out from the molar mass of the structure shown. Some results are limits rather than exact numbers.

With `O=C1N(Cc2ccccc2)[C@@H]2CC[C@@H](Cl)[C@@H](C2)C1(Cl)Cl` (racemic) [2k, (1RS,5RS,6RS)-2-Benzyl-4,4,6-trichloro-2-azabicyclo[3.3.1] nonan-3-one], the melting point was in the range of 116 to 118 °C.

As to `C[C@@H](Cl)[C@H]1CN(C(C)(C)C)C(=O)C1(Cl)Cl` (racemic) [epi-2g, (RS)-1-(tert-Butyl)-3,3-dichloro-4-((RS)-1-chloroethyl)pyrrolidin-2-one], the melting point was 113 to 114 °C.

Turning to `CC(C)(C)N1CC(CCl)C(Cl)(Cl)C1=O` (centres unmarked) [2a, 1-(tert-Butyl)-3,3-dichloro-4-(chloromethyl)pyrrolidin-2-one], the viability at 24 h, 250 µg/mL in [1] came to 5%; in data set [7], 15%; in data set [13], 15%. The “MTT IC50 A431” value in [2] (A431, 24 h incubation, 10–250 µg/mL) was 126 µg/mL. The “SI250 (selective toxicity at 250 µg/mL)” value in data set [2] (A431 compared to 3T3, 250 µg/mL, 24 h) is given as 3.3; in [9], 2.2. Moreover, the IC50 is 192 µg/mL (≈ 743 µM) in data set [2] (Homo sapiens, A-431, 24 h, A431, 24 h incubation, 10–250 µg/mL); greater than 250 µg/mL in data set [4]; 100 to 250 µg/mL (≈ 387 to 967 µM) in [5]; greater than 250 µg/mL in [6]; 172 µg/mL (≈ 665 µM) in [8]; greater than 250 µg/mL in data set [10]. Further, the 50% inhibitory concentration (IC50) in data set [12] (Homo sapiens, MCF7, 24 h incubation, 10–250 µg/mL) is greater than 250 µg/mL; in data set [14] (Homo sapiens, HeLa, 24 h, 24 h incubation, 10–250 µg/mL), 195 µg/mL (≈ 754 µM). For the same compound, the “MTT SI A431” value in data set [2] (SI = IC50 (3T3)/IC50 (A431)) is 1.4. Further, the hemolysis at 10 µg/mL in data set [3] (10 µg/mL) was 0.02%. In addition, the hemolysis at 80 µg/mL in data set [3] (80 µg/mL) was roughly 0.07%. For the same compound, in data set [11], the viability at 24 h was determined as 30%. For the same compound, the “MTT SI MCF7” value in data set [12] (SI = IC50 (3T3)/IC50 (MCF7)) was less than 0.69. Moreover, the “MTT IC50 Hela” value in data set [14] (HeLa, 24 h incubation, 10–250 µg/mL) is listed as 109 µg/mL. In addition, the “MTT SI HeLa” value in [14] (SI = IC50 (3T3)/IC50 (HeLa)) is less than 1.
